In PubChem BioAssay AID1918938 (Molecular Pharmacology Branch, DTP, NCI, 2023):

Tested on: 556581-035-R-J1-PDC complex spheroid viability
Assay: Anticancer human tumor 556581-035-R-J1-PDC patient-derived ovarian carcinoma cell line growth inhibition
Conditions: for IC50: curve of first compound; for viability, T/C: stronger effect = lower value
Summary of the method: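 Multicellular complex spheroids of tumor cells with human endothelial cells (HUVEC) and mesenchymal stem cells; the LSD1 inhibitor iadademstat was combined with standard-of-care or investigational agents. Top concentration at or near clinical Cmax, half-log dilutions; final DMSO ≤0.25%.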
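Note: spheroids exposed to agents for seven days.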
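Throughout, for viability, T/C: 100% = DMSO vehicle control wells.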

`Nc1ncn(C2CC(O)C(CO)S2)c(=O)n1` (stereo not given) + NC1CC1c1ccc(-c2cccc(O)c2)cc1 gave an IC50 (second compound 0.1 µM) of 37.5 nM, an IC50 (second compound 0.316 µM) of 33.1 nM and an IC50 (second compound 1 µM) of 34.7 nM. The IC50 (second compound 3.16 µM) was 33.7 nM, the IC50 (second compound 10 µM) was 28.8 nM and the viability, T/C (second compound 0.1 µM, first compound 0.000949 µM) was 86.7%. The viability, T/C (second compound 0.1 µM, first compound 0.003 µM) was 84.5%, the viability, T/C (second compound 0.1 µM, first compound 0.00949 µM) was 78.2% and the viability, T/C (second compound 0.1 µM, first compound 0.03 µM) was 52%. The viability, T/C (second compound 0.1 µM, first compound 0.0949 µM) was 34.1%, the viability, T/C (second compound 0.1 µM, first compound 0.3 µM) was 20.6% and the viability, T/C (second compound 0.316 µM, first compound 0.000949 µM) was 85.9%. For the same molecule, the viability, T/C (second compound 0.316 µM, first compound 0.003 µM) was 80%, the viability, T/C (second compound 0.316 µM, first compound 0.00949 µM) was 88.1% and the viability, T/C (second compound 0.316 µM, first compound 0.03 µM) was 52.4%. It also gave a viability, T/C (second compound 0.316 µM, first compound 0.0949 µM) of 27.9%, a viability, T/C (second compound 0.316 µM, first compound 0.3 µM) of 22.4% and a viability, T/C (second compound 1 µM, first compound 0.000949 µM) of 80.5%. For the same molecule, the viability, T/C (second compound 1 µM, first compound 0.003 µM) was 83.5%, the viability, T/C (second compound 1 µM, first compound 0.00949 µM) was 70% and the viability, T/C (second compound 1 µM, first compound 0.03 µM) was 54.1%. For the same molecule, the viability, T/C (second compound 1 µM, first compound 0.0949 µM) was 30.8%, the viability, T/C (second compound 1 µM, first compound 0.3 µM) was 24% and the viability, T/C (second compound 3.16 µM, first compound 0.000949 µM) was 88.7%. It also gave a viability, T/C (second compound 3.16 µM, first compound 0.003 µM) of 93.6%, a viability, T/C (second compound 3.16 µM, first compound 0.00949 µM) of 73.7% and a viability, T/C (second compound 3.16 µM, first compound 0.03 µM) of 52.6%. It also gave a viability, T/C (second compound 3.16 µM, first compound 0.0949 µM) of 33.1%, a viability, T/C (second compound 3.16 µM, first compound 0.3 µM) of 25.4% and a viability, T/C (second compound 10 µM, first compound 0.000949 µM) of 82.2%. The viability, T/C (second compound 10 µM, first compound 0.003 µM) was 79.7%, the viability, T/C (second compound 10 µM, first compound 0.00949 µM) was 65.4% and the viability, T/C (second compound 10 µM, first compound 0.03 µM) was 52%. For the same molecule, the viability, T/C (second compound 10 µM, first compound 0.0949 µM) was 32.1% and the viability, T/C (second compound 10 µM, first compound 0.3 µM) was 29.9%.

With `O=C(C=Cn1cnc(-c2cc(C(F)(F)F)cc(C(F)(F)F)c2)n1)NNc1cnccn1` + NC1CC1c1ccc(-c2cccc(O)c2)cc1 the IC50 (second compound 0.1 µM) was 40.6 nM, the IC50 (second compound 0.316 µM) was 51.3 nM and the IC50 (second compound 1 µM) was 70.5 nM. For the same molecule, the IC50 (second compound 3.16 µM) was 73.4 nM, the IC50 (second compound 10 µM) was 80.1 nM and the viability, T/C (second compound 0.1 µM, first compound 0.00316 µM) was 68%. The viability, T/C (second compound 0.1 µM, first compound 0.01 µM) was 63.7%, the viability, T/C (second compound 0.1 µM, first compound 0.0316 µM) was 52.4% and the viability, T/C (second compound 0.1 µM, first compound 0.1 µM) was 38.5%. The viability, T/C (second compound 0.1 µM, first compound 0.316 µM) was 16.9%, the viability, T/C (second compound 0.1 µM, first compound 1 µM) was 6.78% and the viability, T/C (second compound 0.316 µM, first compound 0.00316 µM) was 74.5%. It also gave a viability, T/C (second compound 0.316 µM, first compound 0.01 µM) of 73.1%, a viability, T/C (second compound 0.316 µM, first compound 0.0316 µM) of 61.4% and a viability, T/C (second compound 0.316 µM, first compound 0.1 µM) of 32.6%. The viability, T/C (second compound 0.316 µM, first compound 0.316 µM) was 22.7%, the viability, T/C (second compound 0.316 µM, first compound 1 µM) was 4.35% and the viability, T/C (second compound 1 µM, first compound 0.00316 µM) was 76.9%. The viability, T/C (second compound 1 µM, first compound 0.01 µM) was 74.2%, the viability, T/C (second compound 1 µM, first compound 0.0316 µM) was 72.3% and the viability, T/C (second compound 1 µM, first compound 0.1 µM) was 40.1%. For the same molecule, the viability, T/C (second compound 1 µM, first compound 0.316 µM) was 17.2%, the viability, T/C (second compound 1 µM, first compound 1 µM) was 10.3% and the viability, T/C (second compound 3.16 µM, first compound 0.00316 µM) was 73.1%. The viability, T/C (second compound 3.16 µM, first compound 0.01 µM) was 74.3%, the viability, T/C (second compound 3.16 µM, first compound 0.0316 µM) was 61% and the viability, T/C (second compound 3.16 µM, first compound 0.1 µM) was 43.7%. It also gave a viability, T/C (second compound 3.16 µM, first compound 0.316 µM) of 28%, a viability, T/C (second compound 3.16 µM, first compound 1 µM) of 8% and a viability, T/C (second compound 10 µM, first compound 0.00316 µM) of 71.3%. For the same molecule, the viability, T/C (second compound 10 µM, first compound 0.01 µM) was 77.7%, the viability, T/C (second compound 10 µM, first compound 0.0316 µM) was 56.5% and the viability, T/C (second compound 10 µM, first compound 0.1 µM) was 52.3%. It also gave a viability, T/C (second compound 10 µM, first compound 0.316 µM) of 20.2% and a viability, T/C (second compound 10 µM, first compound 1 µM) of 13.4%.
